This passage reports EC50 results from paper PMC7253176, “Characterization of the kinetic cycle of an ABC transporter by single-molecule and cryo-EM analyses” (eLife, 2020).

Structures are written as SMILES.

For test [1], the target named is T1, bovine multidrug resistance protein 1 (bMRP1) (Bos taurus, UniProt Q8HXQ5).
T1 construct: gene ABCC1
Briefly: biochemical.

Test [2] addresses T2, bovine multidrug resistance protein 1 (bMRP1) (Bos taurus, UniProt Q8HXQ5, DEL868-879).
T2 construct: gene ABCC1; purified WT bMRP1 with S6 peptide replacing residues 868–879 and A1 peptide after V1530, Cy3/LD655-labeled
Briefly: smFRET dose response of IF1 state occupancy (purified protein); also stimulates ATPase activity. The class given is binding.

T1 sequence (Q8HXQ5 whole entry): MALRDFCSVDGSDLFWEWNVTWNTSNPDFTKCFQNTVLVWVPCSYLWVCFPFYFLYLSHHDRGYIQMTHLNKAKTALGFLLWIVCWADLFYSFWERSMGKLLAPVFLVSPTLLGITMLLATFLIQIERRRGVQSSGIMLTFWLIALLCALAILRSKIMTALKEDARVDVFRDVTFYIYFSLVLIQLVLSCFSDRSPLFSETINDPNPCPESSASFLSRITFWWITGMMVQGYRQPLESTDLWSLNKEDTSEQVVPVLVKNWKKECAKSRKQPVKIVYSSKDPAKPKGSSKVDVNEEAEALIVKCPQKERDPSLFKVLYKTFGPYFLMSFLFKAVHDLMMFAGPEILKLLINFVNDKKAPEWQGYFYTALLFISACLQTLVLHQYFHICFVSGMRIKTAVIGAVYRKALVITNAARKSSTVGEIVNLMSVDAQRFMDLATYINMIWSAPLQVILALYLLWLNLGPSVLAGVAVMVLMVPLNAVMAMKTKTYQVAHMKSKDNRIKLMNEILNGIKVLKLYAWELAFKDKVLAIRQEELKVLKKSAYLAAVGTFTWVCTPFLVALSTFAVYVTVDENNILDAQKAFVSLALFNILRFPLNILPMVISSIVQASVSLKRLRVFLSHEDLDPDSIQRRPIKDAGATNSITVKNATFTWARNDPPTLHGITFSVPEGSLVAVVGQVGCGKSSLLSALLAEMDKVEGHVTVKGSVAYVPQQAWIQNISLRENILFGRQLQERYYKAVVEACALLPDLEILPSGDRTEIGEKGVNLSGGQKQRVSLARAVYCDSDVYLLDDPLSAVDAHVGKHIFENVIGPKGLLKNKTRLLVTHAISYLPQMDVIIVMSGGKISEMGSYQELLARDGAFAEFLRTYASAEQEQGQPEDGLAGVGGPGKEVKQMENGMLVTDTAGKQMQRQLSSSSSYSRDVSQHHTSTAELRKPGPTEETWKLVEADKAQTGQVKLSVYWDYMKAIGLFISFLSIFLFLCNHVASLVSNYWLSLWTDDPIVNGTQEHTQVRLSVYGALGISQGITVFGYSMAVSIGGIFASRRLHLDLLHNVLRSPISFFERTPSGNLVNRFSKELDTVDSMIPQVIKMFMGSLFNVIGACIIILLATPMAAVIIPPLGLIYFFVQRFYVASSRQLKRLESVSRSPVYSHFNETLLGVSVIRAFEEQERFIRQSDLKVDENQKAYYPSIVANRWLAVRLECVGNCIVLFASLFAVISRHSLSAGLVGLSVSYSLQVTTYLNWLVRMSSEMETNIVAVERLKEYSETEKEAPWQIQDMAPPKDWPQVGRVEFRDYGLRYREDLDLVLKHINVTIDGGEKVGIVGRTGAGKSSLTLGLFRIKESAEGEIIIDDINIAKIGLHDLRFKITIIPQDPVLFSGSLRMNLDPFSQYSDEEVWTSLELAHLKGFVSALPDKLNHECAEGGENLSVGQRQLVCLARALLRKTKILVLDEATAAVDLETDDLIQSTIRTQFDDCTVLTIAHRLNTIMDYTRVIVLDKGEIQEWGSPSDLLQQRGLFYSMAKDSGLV
T2 sequence (Q8HXQ5 1-867, stated change not applied): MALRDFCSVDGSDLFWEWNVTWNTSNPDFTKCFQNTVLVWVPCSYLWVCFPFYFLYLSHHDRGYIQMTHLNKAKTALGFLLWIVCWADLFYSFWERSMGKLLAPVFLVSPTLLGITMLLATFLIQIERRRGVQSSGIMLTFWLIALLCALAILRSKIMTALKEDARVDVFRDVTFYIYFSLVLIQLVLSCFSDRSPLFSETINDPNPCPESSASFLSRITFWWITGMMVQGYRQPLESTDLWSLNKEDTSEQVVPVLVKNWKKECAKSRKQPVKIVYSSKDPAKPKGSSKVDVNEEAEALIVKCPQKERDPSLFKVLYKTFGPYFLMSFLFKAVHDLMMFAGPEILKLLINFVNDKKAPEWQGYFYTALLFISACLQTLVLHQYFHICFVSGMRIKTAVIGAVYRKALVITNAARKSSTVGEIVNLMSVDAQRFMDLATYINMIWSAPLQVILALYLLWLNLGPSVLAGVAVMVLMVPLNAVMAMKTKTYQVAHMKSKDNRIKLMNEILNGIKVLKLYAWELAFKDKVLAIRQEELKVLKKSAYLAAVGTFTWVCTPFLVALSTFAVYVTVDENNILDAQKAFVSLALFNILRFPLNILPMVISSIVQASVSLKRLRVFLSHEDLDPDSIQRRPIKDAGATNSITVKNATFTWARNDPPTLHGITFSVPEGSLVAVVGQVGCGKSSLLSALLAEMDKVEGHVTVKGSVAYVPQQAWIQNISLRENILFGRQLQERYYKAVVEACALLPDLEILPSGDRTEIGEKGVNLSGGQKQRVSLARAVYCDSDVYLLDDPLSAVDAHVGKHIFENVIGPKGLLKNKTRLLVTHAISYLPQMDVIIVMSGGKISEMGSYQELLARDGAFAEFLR
T2 sequence (Q8HXQ5 880-1530, stated change not applied): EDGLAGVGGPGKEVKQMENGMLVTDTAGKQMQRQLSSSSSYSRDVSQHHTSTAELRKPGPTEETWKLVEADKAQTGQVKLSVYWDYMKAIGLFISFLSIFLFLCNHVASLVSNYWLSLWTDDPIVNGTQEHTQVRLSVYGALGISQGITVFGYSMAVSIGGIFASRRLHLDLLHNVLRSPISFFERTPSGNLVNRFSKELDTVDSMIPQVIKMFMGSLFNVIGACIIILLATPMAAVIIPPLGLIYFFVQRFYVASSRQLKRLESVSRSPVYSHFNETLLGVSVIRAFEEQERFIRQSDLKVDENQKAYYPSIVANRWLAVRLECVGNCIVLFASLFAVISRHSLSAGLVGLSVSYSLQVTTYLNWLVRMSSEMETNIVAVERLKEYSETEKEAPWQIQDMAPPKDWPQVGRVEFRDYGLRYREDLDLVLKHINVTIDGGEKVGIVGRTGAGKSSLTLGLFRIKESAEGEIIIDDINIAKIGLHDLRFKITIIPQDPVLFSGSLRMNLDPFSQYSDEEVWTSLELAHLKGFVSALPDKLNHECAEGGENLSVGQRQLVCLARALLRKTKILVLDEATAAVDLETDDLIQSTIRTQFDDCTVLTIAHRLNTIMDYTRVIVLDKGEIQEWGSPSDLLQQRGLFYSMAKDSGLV

In test [1], `Nc1ncnc2c1ncn2[C@@H]1O[C@H](COP(=O)(O)OP(=O)(O)OP(=O)(O)O)[C@@H](O)[C@H]1O` [ATP] displayed an EC50 of 50 ± 20 µM. `CCCCC/C=C\C\C=C/C=C/C=C/[C@@H](SC[C@H](NC(=O)CC[C@H](N)C(=O)O)C(=O)NCC(=O)O)[C@@H](O)CCCC(=O)O` [Leukotriene C4] returned an EC50 in test [2] of 0.32 ± 0.17 µM.

A word on the EC50: it is the concentration at which the effect is half-maximal. The low end stands for higher potency in that assay, the high end for lower potency in that assay.
